Experimental data reported in patent publication US20250026748A1, “N-(5-SUBSTITUTED-[(1,3,4-THIADIAZOLYL) OR (THIAZOLYL)])(SUBSTITUTED)CARBOXAMIDE COMPOUNDS AND USE THEREOF FOR INHIBITING HUMAN POLYMERASE THETA” (Repare Therapeutics Inc., priority 2021, published 2025).

Biological target: PolQ ATPase enzyme (1-894) (Homo sapiens (Human), UniProt O75417)
Experiment: Polθ ATPase enzymatic assay (0.5 nM enzyme concentration), ADP-Glo
Assay type: biochemical
Conditions: average IC50; 0.5 nM PolQ ATPase enzyme (1-894)
Method: PolQ ATPase enzyme (1-894) at 0.5 nM is incubated with a 10-point concentration response of inhibitors for 15 min at rt in the following buffer: 50 mM Tris Cl pH 7.5, 10% glycerol, 5 mM DTT, 10 mM MgCl2, 0.1 mg/ml BSA. Following pre-incubation with inhibitors, DNA (Fork C) at 20 nM and ATP at 100 μM are added to start the reaction. Enzymatic reaction proceeds at rt for 180 min ATP consumption is measured using the ADP-Glo assay from Promega. Luminescence is read on the Envision and IC50 are determined using the variable slope 4-parameters equation.
Oligos are annealed by heating at 9500 for 5 min in the following buffer (10 mM Tris-HCl pH7.5, 50 mM NaCl, 1 mM EDTA) and cooled to rt. […]

Sequence of PolQ ATPase enzyme (1-894) (O75417 1-894): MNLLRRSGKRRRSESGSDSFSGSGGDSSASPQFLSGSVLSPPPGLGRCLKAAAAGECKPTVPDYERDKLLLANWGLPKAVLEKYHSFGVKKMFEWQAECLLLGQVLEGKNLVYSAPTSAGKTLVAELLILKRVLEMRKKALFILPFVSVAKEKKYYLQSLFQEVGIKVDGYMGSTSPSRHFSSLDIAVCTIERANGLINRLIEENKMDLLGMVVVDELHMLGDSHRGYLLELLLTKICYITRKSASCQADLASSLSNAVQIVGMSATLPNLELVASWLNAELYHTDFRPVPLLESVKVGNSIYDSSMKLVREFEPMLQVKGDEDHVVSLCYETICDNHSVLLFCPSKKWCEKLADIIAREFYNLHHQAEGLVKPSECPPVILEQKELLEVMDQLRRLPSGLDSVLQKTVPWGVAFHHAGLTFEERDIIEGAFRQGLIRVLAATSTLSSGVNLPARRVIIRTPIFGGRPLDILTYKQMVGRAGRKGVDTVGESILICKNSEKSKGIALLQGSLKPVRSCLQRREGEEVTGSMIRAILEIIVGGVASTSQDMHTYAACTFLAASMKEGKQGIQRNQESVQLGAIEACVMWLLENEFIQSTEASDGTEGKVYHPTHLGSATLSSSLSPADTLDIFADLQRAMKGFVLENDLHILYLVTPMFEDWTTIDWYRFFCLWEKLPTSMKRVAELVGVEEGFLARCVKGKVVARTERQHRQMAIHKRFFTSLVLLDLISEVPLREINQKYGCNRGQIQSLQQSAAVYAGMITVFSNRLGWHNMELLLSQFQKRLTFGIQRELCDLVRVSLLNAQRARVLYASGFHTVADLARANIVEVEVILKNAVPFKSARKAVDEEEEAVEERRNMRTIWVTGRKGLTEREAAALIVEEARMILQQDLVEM

| IC50 [nM] | SMILES |
| --- | --- |
| 0.8 | COc1cnc(C(F)(F)F)cc1-c1cnccc1C(=O)Nc1nnc(C2CC2c2ccc(C#N)cc2)s1 (stereo not drawn) [Compound 90] |
| 2.3 | COc1cnc(C(F)(F)F)cc1-c1cnccc1C(=O)Nc1nnc(C#CC2CC2)s1 [Compound 91] |
| 0.25 | CNC(=O)Cn1cc(-c2cc(C(F)(F)F)ccc2OC)c(C(=O)Nc2nnc(C3CC3c3ccc(C#N)cc3)s2)cc1=O (stereo not drawn) [Compound 92] |
| 0.32 | CNC(=O)Cn1cc(-c2cc(C(F)(F)F)ccc2OC)c(C(=O)Nc2nnc(C#CC3CC3)s2)cc1=O [Compound 93] |
| < 0.25 | COc1ccc(C(F)(F)F)cc1-c1cn(CC(N)=O)c(=O)cc1C(=O)Nc1nnc(C#Cc2cc(C)[nH]n2)s1 [Compound 94] |
| < 0.25 | COc1ccc(C(F)(F)F)cc1-c1cn(CC(N)=O)c(=O)cc1C(=O)Nc1nnc(C#CC2CC2)s1 [Compound 95] |
| 2.6 | COc1cnc(Cl)cc1-c1cn2ncnc2cc1C(=O)Nc1nnc(C#CC2CC2)s1 [Compound 96] |
| 2 | COc1cnc(Cl)cc1-c1cn2ncnc2cc1C(=O)Nc1nnc(C#Cc2cc(C)[nH]n2)s1 [Compound 97] |
| 0.54 | Cc1cc(C#Cc2nnc(NC(=O)c3cc(=O)n(C)cc3-c3cc(Cl)ncc3OC(F)F)s2)n[nH]1 [Compound 98] |
| 0.36 | COc1cnc(Cl)cc1-c1cn(CC(=O)N(C)C)c(=O)cc1C(=O)Nc1nnc(C#CC2CC2)s1 [Compound 99] |
| < 0.25 | COc1cnc(Cl)cc1-c1cnccc1C(=O)Nc1nnc(C#CC2CC23CC3)s1 (stereo not drawn) [Compound 100] |
| < 0.25 | COc1ccc(F)cc1-c1cnccc1C(=O)Nc1nnc(C#Cc2cc(C#N)[nH]n2)s1 [Compound 101] |
| 1.2 | COc1ccc(C(F)(F)F)cc1-c1cn(C)c(=O)cc1C(=O)Nc1nnc(C#Cc2cc(C)[nH]n2)s1 [Compound 102] |
| 1.2 | COc1cnc(Cl)cc1-c1cn(C)c(=O)cc1C(=O)Nc1nnc(C#Cc2cc(C)[nH]n2)s1 [Compound 103] |
| 0.31 | CNC(=O)Cn1cc(-c2cc(Cl)ncc2OC)c(C(=O)Nc2nnc(C#CC3CC3)s2)cc1=O [Compound 104] |
| 0.47 | COc1cnc(Cl)cc1-c1cn(CC(N)=O)c(=O)cc1C(=O)Nc1nnc(C#CC2CC2)s1 [Compound 105] |
| < 0.25 | Cc1cc(C#Cc2nnc(NC(=O)c3ccncc3-c3cc(Cl)ncc3OC(F)F)s2)n[nH]1 [Compound 106] |
| 0.76 | COc1cnc(Cl)cc1-c1cn(C)c(=O)cc1C(=O)Nc1nnc(C#CC2CC23CC3)s1 (stereo not drawn) [Compound 107] |
| < 0.25 | COc1cnc(C(F)F)cc1-c1cc(N2CCOCC2=O)ccc1C(=O)Nc1nnc(C#CC2CC2)s1 [Compound 108, N-(5-(cyclopropylethynyl)-1,3,4-thiadiazol-2-yl)-2-(2-(difluoromethyl)-5-methoxypyridin-4-yl)-4-(3-oxomorpholino)benzamide] |
| < 0.25 | COc1cnc(C(F)F)cc1-c1cc(N2CCN(C)CC2=O)ccc1C(=O)Nc1nnc(C#CC2CC2)s1 [Compound 109, N-(5-(cyclopropylethynyl)-1,3,4-thiadiazol-2-yl)-2-(2-(difluoromethyl)-5-methoxypyridin-4-yl)-4-(4-methyl-2-oxopiperazin-1-yl)benzamide] |
| < 0.25 | COc1cnc(C(F)F)cc1-c1cc(N2CCOCC2=O)ncc1C(=O)Nc1nnc(C#CC2CC2)s1 [Compound 110, N-(5-(cyclopropylethynyl)-1,3,4-thiadiazol-2-yl)-2′-(difluoromethyl)-5′-methoxy-6-(3-oxomorpholino)-[4,4′-bipyridine]-3-carboxamide] |
| 0.78 | COc1cnc(C(F)F)cc1-c1cc(-c2nnc(C)o2)ccc1C(=O)Nc1nnc(C#CC2CC2)s1 [Compound 111, N-(5-(cyclopropylethynyl)-1,3,4-thiadiazol-2-yl)-2-(2-(difluoromethyl)-5-methoxypyridin-4-yl)-4-(5-methyl-1,3,4-oxadiazol-2-yl)benzamide] |

| IC50 [nM] | SMILES |
| --- | --- |
| < 0.25 | COc1cnc(C(F)F)cc1-c1cc(CC#N)ccc1C(=O)Nc1nnc(C#CC2CC2)s1 [Compound 112, 4-(cyanomethyl)-N-(5-(cyclopropylethynyl)-1,3,4-thiadiazol-2-yl)-2-(2-(difluoromethyl)-5-methoxypyridin-4-yl)benzamide] |
| 0.53 | COc1cnc(C(F)F)cc1-c1cc(-c2ccn(C)n2)ncc1C(=O)Nc1nnc(C#CC2CC2)s1 [Compound 113, N-(5-(cyclopropylethynyl)-1,3,4-thiadiazol-2-yl)-2′-(difluoromethyl)-5′-methoxy-6-(1-methyl-1H-pyrazol-3-yl)-[4,4′-bipyridine]-3-carboxamide] |
| 0.26 | Cc1nnc(Cn2cc(-c3cc(C(F)F)ccc3Cl)c(C(=O)Nc3ncc(C#CC4CC4)s3)cc2=O)o1 [Compound 114, 5-(2-chloro-5-(difluoromethyl)phenyl)-N-(5-(cyclopropylethynyl)thiazol-2-yl)-1-((5-methyl-1,3,4-oxadiazol-2-yl)methyl)-2-oxo-1,2-dihydropyridine-4-carboxamide] |
| < 0.25 | Cc1nnc(Cn2cc(-c3cc(C(F)(F)F)ccc3Cl)c(C(=O)Nc3ncc(C#CC4CC4)s3)cc2=O)o1 [Compound 115, 5-(2-chloro-5-(trifluoromethyl)phenyl)-N-(5-(cyclopropylethynyl)thiazol-2-yl)-1-((5-methyl-1,3,4-oxadiazol-2-yl)methyl)-2-oxo-1,2-dihydropyridine-4-carboxamide] |
| 2 | COc1cnc(C(F)F)cc1-c1cc(-c2ccn(C)n2)ncc1C(=O)Nc1ncc(C#CC2CC2)s1 [Compound 117, N-(5-(cyclopropylethynyl)thiazol-2-yl)-2′-(difluoromethyl)-5′-methoxy-6-(1-methyl-1H-pyrazol-3-yl)-[4,4′-bipyridine]-3-carboxamide] |
| 2.5 | COc1cnc(C(F)F)cc1-c1cc(-c2nnc(C)o2)ccc1C(=O)Nc1ncc(C#CC2CC2)s1 [Compound 120] |
| 2 | COc1cnc(C(F)F)cc1-c1cc(N2CCC(C)(O)CC2)ncc1C(=O)Nc1nnc(C#CC2CC2)s1 [Compound 121] |
| < 0.25 | COc1cnc(C(F)F)cc1-c1cc(-n2ccccc2=O)ncc1C(=O)Nc1nnc(C#CC2CC2)s1 [Compound 122, N-(5-(cyclopropylethynyl)-1,3,4-thiadiazol-2-yl)-2″-(difluoromethyl)-5″-methoxy-2-oxo-2H-[1,2′:4′,4″-terpyridine]-5′-carboxamide] |
| < 0.25 | COC(=O)N1CCN(c2ccc(C(=O)Nc3nnc(C#CC4CC4)s3)c(-c3cc(C(F)F)ncc3OC)c2)C(=O)C1 [Compound 123] |
| < 0.25 | COc1cnc(C(F)F)cc1-c1cc(-c2ccn(CS(C)(=O)=O)n2)ccc1C(=O)Nc1nnc(C#CC2CC2)s1 [Compound 124, N-(5-(cyclopropylethynyl)-1,3,4-thiadiazol-2-yl)-2-(2-(difluoromethyl)-5-methoxypyridin-4-yl)-4-(1-((methylsulfonyl)methyl)-1H-pyrazol-3-yl)benzamide] |
| 21 | COc1cnc(C(F)F)cc1-c1cc(N2CCC(n3ccnc3)CC2)ncc1C(=O)Nc1nnc(C#CC2CC2)s1 [Compound 125] |
| 4 | COc1cnc(C(F)F)cc1-c1cc(N2CCN(C)C(=O)C2)ncc1C(=O)Nc1nnc(C#CC2CC2)s1 [Compound 128] |
| 1.6 | COc1cnc(C(F)F)cc1-c1cc(N2CC3(CC(C(=O)N(C)C)C3)C2)ncc1C(=O)Nc1nnc(C#CC2CC2)s1 [Compound 129] |
| 2.1 | COc1cnc(C(F)F)cc1-c1cc(N2CC3(C2)CC(C)(O)C3)ncc1C(=O)Nc1nnc(C#CC2CC2)s1 [Compound 130, N-(5-(cyclopropylethynyl)-1,3,4-thiadiazol-2-yl)-2′-(difluoromethyl)-6-(6-hydroxy-6-methyl-2-azaspiro[3.3]heptan-2-yl)-5′-methoxy-[4 4′-bipyridine]-3-carboxamide] |
| < 0.25 | COc1cnc(C(F)F)cc1-c1cc(N2CCn3nccc3C2=O)ncc1C(=O)Nc1nnc(C#CC2CC2)s1 [Compound 133] |
| < 0.25 | COc1cnc(C(F)F)cc1-c1cc(-c2cnn(CCO)c2)ccc1C(=O)Nc1nnc(C#CC2CC2)s1 [Compound 134] |
| < 0.25 | COc1cnc(C(F)F)cc1-c1cc(-c2ccncn2)ncc1C(=O)Nc1nnc(C#CC2CC2)s1 [Compound 135] |
| 8.5 | COc1cnc(C(F)F)cc1-c1cc(N(C)Cc2cnn(C)c2)ccc1C(=O)Nc1nnc(C#CC2CC2)s1 [Compound 136] |
| 0.26 | COc1cnc(C(F)F)cc1-c1cc(N2CCN(C(C)=O)CC2=O)ccc1C(=O)Nc1nnc(C#CC2CC2)s1 [Compound 137] |
| 61 | COc1cnc(C(F)F)cc1-c1cc(-c2ccn(C)n2)cnc1C(=O)Nc1ncc(C#CC2CC2)s1 [Compound 139, N-(5-(cyclopropylethynyl)thiazol-2-yl)-2′-(difluoromethyl)-5′-methoxy-5-(1-methyl-1H-pyrazol-3-yl)-[3,4′-bipyridine]-2-carboxamide] |
| < 0.25 | COc1cnc(C(F)F)cc1-c1cc(N2CCC(C)CC2=O)ncc1C(=O)Nc1nnc(C#CC2CC2)s1 (stereo not drawn) [Compound 141] |
| < 0.25 | COc1cnc(C(F)F)cc1-c1cc(N2CCC3CC3C2=O)ncc1C(=O)Nc1nnc(C#CC2CC2)s1 (stereo not drawn) [Compound 142] |

| SMILES | IC50 [nM] |
| --- | --- |
| COc1cnc(C(F)F)cc1-c1cc(N(C)c2nnc(C)o2)ccc1C(=O)Nc1ncc(C#CC2CC2)s1 [Compound 119] | 23 |
| Cc1nnc(Cn2cc(-c3cc(C(F)F)ncc3C)c(C(=O)Nc3ncc(C#CC4CC4)s3)cc2=O)o1 [Compound 126] | < 0.25 |
| COc1cnc(C(F)F)cc1-c1cc(-c2ccnn2C)ncc1C(=O)Nc1nnc(C#CC2CC2)s1 [Compound 127] | < 0.25 |
| COc1cnc(C(F)F)cc1-c1cc(-c2nnc(C)s2)ccc1C(=O)Nc1nnc(C#CC2CC2)s1 [Compound 138] | < 0.25 |
